Test results: ChEMBL document CHEMBL1147955, “Novel pyridyl-fused 3-amino chroman derivatives with dual action at serotonin transporter and 5-HT1A receptor” (Bioorg Med Chem Lett, 2007)

How the values were obtained:
[1] = target: T1, 5-hydroxytryptamine receptor 1A (Homo sapiens, UniProt P08908); experiment: Displacement of [3H]8-OH-DPAT from human 5HT1A receptor expressed in CHO cells; assay type: cell-based
T1 sequence (P08908 whole entry): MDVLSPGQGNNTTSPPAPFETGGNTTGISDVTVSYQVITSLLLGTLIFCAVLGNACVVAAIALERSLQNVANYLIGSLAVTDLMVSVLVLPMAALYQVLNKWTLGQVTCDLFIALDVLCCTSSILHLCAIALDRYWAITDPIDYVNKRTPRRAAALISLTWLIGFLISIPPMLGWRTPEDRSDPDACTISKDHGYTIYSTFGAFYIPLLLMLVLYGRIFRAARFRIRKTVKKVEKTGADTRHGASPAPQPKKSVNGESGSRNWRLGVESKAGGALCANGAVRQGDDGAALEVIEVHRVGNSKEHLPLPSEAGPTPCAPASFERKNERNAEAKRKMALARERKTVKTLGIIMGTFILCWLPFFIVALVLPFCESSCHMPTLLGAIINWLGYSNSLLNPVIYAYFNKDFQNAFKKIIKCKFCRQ

[2] = target: Sodium-dependent serotonin transporter (Rattus norvegicus, UniProt P31652); experiment: Displacement of [3H]paroxetine from 5HT reuptake site of rat cortical 5HTT
[3] = target: T2, Adrenergic receptor alpha-1 (Rattus norvegicus, UniProt P15823+P23944+P43140); experiment: Displacement of [3H]prazosin from adrenergic alpha-1 receptor in rat cortical membranes at 1 uM; assay type: cell membranes, Membrane
T2 sequence (P15823 whole entry): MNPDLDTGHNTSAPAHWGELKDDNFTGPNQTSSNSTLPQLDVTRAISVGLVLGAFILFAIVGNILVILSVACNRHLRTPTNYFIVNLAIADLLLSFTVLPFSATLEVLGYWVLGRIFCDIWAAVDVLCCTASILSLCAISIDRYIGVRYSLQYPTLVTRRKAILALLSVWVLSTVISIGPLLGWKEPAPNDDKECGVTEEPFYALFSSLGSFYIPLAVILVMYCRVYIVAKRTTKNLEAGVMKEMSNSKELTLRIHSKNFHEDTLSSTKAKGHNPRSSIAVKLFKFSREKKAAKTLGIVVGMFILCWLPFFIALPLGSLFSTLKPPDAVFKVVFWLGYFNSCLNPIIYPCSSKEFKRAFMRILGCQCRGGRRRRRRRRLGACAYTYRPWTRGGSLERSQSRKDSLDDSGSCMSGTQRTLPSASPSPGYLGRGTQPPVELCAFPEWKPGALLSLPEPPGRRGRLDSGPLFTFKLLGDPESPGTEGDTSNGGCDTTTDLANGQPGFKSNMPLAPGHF
T2 sequence (P23944 whole entry): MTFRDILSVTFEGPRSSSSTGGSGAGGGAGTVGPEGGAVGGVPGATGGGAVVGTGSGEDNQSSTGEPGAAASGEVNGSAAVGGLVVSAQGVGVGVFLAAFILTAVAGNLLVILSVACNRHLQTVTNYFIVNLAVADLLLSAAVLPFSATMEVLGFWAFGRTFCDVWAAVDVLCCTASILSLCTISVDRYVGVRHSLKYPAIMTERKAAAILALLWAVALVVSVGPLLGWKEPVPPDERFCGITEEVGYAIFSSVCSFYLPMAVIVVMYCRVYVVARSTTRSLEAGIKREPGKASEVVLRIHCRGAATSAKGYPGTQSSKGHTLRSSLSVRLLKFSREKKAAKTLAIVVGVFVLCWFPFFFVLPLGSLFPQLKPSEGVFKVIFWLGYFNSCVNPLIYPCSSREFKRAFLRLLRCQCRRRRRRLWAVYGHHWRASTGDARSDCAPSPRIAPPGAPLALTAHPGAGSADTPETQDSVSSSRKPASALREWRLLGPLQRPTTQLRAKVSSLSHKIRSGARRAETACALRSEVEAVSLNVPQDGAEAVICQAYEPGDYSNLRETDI
T2 sequence (P43140 whole entry): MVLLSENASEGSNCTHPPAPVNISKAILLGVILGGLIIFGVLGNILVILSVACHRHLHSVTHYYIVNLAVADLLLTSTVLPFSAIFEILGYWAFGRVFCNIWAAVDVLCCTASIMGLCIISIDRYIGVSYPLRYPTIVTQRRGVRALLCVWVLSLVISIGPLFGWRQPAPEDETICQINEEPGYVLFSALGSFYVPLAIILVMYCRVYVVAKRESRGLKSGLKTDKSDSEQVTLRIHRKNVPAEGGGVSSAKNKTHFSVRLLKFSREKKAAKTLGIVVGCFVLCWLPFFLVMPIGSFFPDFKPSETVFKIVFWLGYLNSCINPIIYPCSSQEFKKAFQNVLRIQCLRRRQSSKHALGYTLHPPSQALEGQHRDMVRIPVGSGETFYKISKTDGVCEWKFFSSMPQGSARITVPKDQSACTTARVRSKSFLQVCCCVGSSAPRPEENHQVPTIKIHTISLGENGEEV

[4] = target: T2, Adrenergic receptor alpha-1; experiment: Displacement of [3H]prazosin from adrenergic alpha-1 receptor in rat cortical membranes; assay type: cell membranes, Membrane
[5] = target: T1, 5-hydroxytryptamine receptor 1A; experiment: Displacement of [3H]8-OH-DPAT from human 5HT1A receptor expressed in CHO cells at 1 uM; assay type: cell-based
[6] = target: T1, 5-hydroxytryptamine receptor 1A; experiment: Agonist activity at human 5HT1A receptor expressed in CHO membrane assessed as stimulation of [35S]GTP-gamma-S binding; assay type: functional, cell membranes
[7] = target: T3, 5-hydroxytryptamine receptor 1A (Homo sapiens) (UniProt P08908); experiment: Agonist activity at human 5HT1A receptor expressed in CHO membrane assessed as stimulation of [35S]GTPgammaS binding relative to 5HT; assay type: functional, cell membranes
T3 sequence (whole entry): T1 sequence (P08908 whole entry)

Sodium-dependent serotonin transporter, sequence (P31652 whole entry): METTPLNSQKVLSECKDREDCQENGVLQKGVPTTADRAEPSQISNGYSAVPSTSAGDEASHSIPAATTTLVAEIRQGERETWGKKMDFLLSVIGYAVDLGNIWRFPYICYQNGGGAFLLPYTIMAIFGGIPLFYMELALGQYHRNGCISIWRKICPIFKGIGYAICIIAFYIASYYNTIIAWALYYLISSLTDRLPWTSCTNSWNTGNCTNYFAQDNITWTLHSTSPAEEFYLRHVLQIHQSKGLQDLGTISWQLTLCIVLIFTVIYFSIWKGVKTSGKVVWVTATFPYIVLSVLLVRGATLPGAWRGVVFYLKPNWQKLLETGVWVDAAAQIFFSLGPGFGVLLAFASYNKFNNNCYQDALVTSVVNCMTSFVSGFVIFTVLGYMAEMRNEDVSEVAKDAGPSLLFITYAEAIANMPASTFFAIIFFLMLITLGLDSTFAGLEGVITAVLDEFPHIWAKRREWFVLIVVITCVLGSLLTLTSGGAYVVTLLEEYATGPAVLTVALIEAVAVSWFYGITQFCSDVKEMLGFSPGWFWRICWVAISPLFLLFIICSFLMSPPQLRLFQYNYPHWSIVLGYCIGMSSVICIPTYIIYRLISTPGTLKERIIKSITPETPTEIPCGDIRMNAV

Row | Ki [1] [µM] | Ki [2] [µM] | Ki [4] [µM] | SMILES | further results
1 | 0.0635 | 0.0169 | – | CCCN(CCCc1c[nH]c2ccc(F)cc12)C1COc2ccc3ncccc3c2C1 (racemic) | % inhibition [3]: 18%
2 | – | 0.0124 | 1.2343 | CCCN(CCCc1c[nH]c2ccc(F)cc12)C1COc2c(ccc3ncccc23)C1 (racemic) | % inhibition [5]: 46%
3 | – | 0.0015 | – | Fc1ccc2[nH]cc(CCCCNC3COc4c(ccc5ncccc45)C3)c2c1 (racemic) | % inhibition [5]: 47%; % inhibition [3]: 33%
4 | – | – | 0.3242 | Fc1ccc2[nH]cc(CCCNC3COc4ccc5ncccc5c4C3)c2c1 (racemic) | –
5 | – | 0.0628 | 0.7112 | CCCN(CCc1c[nH]c2ccc(F)cc12)C1COc2ccc3ncccc3c2C1 (racemic) | –
6 | – | – | – | CCCN(CCCCc1c[nH]c2ccc(F)cc12)C1COc2c(ccc3ncccc23)C1 (racemic) | % inhibition [5]: 21%; % inhibition [3]: 19%
7 | 0.105 | 0.0026 | 0.4895 | Fc1ccc2[nH]cc(CCCNC3COc4c(ccc5ncccc45)C3)c2c1 (racemic) | –
8 | 0.0704 | 0.0092 | 0.7725 | COc1cccc2c1CC(NCCCc1c[nH]c3ccc(F)cc13)CO2 (racemic) | –
9 | – | 0.0305 | 1.0787 | Fc1ccc2[nH]cc(CCNC3COc4ccc5ncccc5c4C3)c2c1 (racemic) | % inhibition [5]: 10%
10 | 0.058 | 0.0198 | – | CCCN(CCCc1c[nH]c2ccc(F)cc12)C1COc2ccc3ncccc3c2C1 (single isomer, unassigned; (+)) [listing 1 of 2 here] | EC50 [6]: 0.301 µM; % inhibition [3]: 38%
11 | 0.392 | 0.003 | 0.6237 | Fc1ccc2[nH]cc(CCCNC3COc4c(ccc5ncccc45)C3)c2c1 (single isomer, unassigned; (+)) [listing 1 of 2 here] | EC50 [6]: 0.332 µM
12 | – | – | – | CCCN(CCCc1c[nH]c2ccc(F)cc12)C1COc2ccc3ncccc3c2C1 (single isomer, unassigned; (+)) [listing 2 of 2 here] | Emax [7]: 100%
13 | – | – | – | Fc1ccc2[nH]cc(CCCNC3COc4c(ccc5ncccc45)C3)c2c1 (single isomer, unassigned; (+)) [listing 2 of 2 here] | Emax [7]: 75%
14 | 0.314 | – | 0.221 | Fc1ccc2[nH]cc(CCCNC3COc4ccc5ncccc5c4C3)c2c1 (single isomer, unassigned; (-)) [listing 1 of 2 here] | EC50 [6]: 0.116 µM
15 | 0.0678 | 0.0012 | 0.3877 | Fc1ccc2[nH]cc(CCCNC3COc4c(ccc5ncccc45)C3)c2c1 (single isomer, unassigned; (-)) [listing 1 of 2 here] | EC50 [6]: 0.172 µM
16 | – | – | – | Fc1ccc2[nH]cc(CCCNC3COc4c(ccc5ncccc45)C3)c2c1 (single isomer, unassigned; (-)) [listing 2 of 2 here] | Emax [7]: 100%
17 | – | – | – | Fc1ccc2[nH]cc(CCCNC3COc4ccc5ncccc5c4C3)c2c1 (single isomer, unassigned; (-)) [listing 2 of 2 here] | Emax [7]: 86%
18 | 0.0239 | – | 0.5908 | Fc1ccc2[nH]cc(CCCNC3COc4ccc5ncccc5c4C3)c2c1 (stereo in doubt; (+)-5) [listing 1 of 2 here] | –
19 | – | – | – | Fc1ccc2[nH]cc(CCCNC3COc4ccc5ncccc5c4C3)c2c1 (stereo in doubt; (+)-5) [listing 2 of 2 here] | Emax [7]: 100%
20 | – | 0.0088 | – | CCCN(CCCc1c[nH]c2ccc(F)cc12)C1COc2ccc3ncccc3c2C1 (stereo in doubt; (-)-6) [listing 1 of 2 here] | % inhibition [3]: 31%
21 | – | – | – | CCCN(CCCc1c[nH]c2ccc(F)cc12)C1COc2ccc3ncccc3c2C1 (stereo in doubt; (-)-6) [listing 2 of 2 here] | Emax [7]: 55%
